Measurements taken from patent EP4438597A1, “2-STYRYLBENZOTHIAZOLE DERIVATIVES AS A-SYNUCLEIN BINDING COMPOUNDS” (Eberhard Karls Universität Tübingen Medizinische Fakultät, priority 2023, dated 2024).

What was measured:
[1] = biological target: T1, αSYN fibrils (Homo sapiens, UniProt P37840); experiment: [3H]MODAG-001 competition binding assay on αSYN fibrils; settings: for Ki: competition with [3H]MODAG-001, αSYN fibrils
Experimental: (§1) Concentrations of αSYN and Aβ1-42 fibrils were as described above.
(§2) Plates were incubated on a shaker (MaxQ 6000, Thermo Fisher Scientific Inc., Marietta, OH, USA) at 50 rpm for 2 hours at 37°C, covered by removable sealing tapes (PerkinElmer, Waltham, MA, USA). Vacuum filtration and read-out were performed as disclosed in Kuebler, L. et al., [11C]MODAG-001-towards a PET tracer targeting α-synuclein aggregates; European Journal of Nuclear Medicine and Molecular Imaging 2020, 48, 1759-1772. […] Data points were fitted using non-linear regression analysis in GraphPad Prism (GraphPad Software, Inc., Version 8.4.0, La Jolla, USA).

[2] = biological target: T1, αSYN fibrils; experiment: [3H]PiB competition binding assay on αSYN fibrils
Experimental: as §1
Plates were incubated on a shaker (MaxQ 6000, Thermo Fisher Scientific Inc., Marietta, OH, USA) at 50 rpm for 2 hours at 37°C, covered by removable sealing tapes (PerkinElmer, Waltham, MA, USA). […] Data points were fitted using non-linear regression analysis in GraphPad Prism (GraphPad Software, Inc., Version 8.4.0, La Jolla, USA).

[3] = biological target: T2, αSYN pathology (Homo sapiens, UniProt P37840); experiment: in vitro autoradiography on human brain slices with αSYN pathology (MSA, PD); type: binding; settings: mean over MSA brain slices
T2 construct: tissue Neurobiobank München (NBM, Munich, Germany); host or cells: post-mortem human brain slices (MSA cerebellum, PD frontal cortex, controls)
Experimental: Post-mortem human brain slices (10 µm thickness) were obtained from and the subject cases were analyzed by the Neurobiobank München (NBM, Munich, Germany), where tissues were collected on the basis of written informed consent according to the guidelines of the ethics committee of the Ludwig-Maximilians-University Munich, Germany (# 345-13). The use of brain tissue samples in this study was approved by the ethics committee of the Faculty of Medicine at the University of Tuebingen (Ethics approval number: 813/2018BO2). Table 1 summarizes the information of the subjects from which samples were obtained and used in the experiment.
For autoradiography, brain slices were thawed for one hour before preincubation in BSA buffer for 25 minutes at room temperature. To determine total binding (TB), brain slices were incubated with the tracer (10 nM [^18F]PFSB, 10 nM [^18F]MFSB). […]
Quantitative data analysis was performed by drawing four regions of interest (ROIs) in relevant areas of the slice and one ROI next to it for background subtraction (imaged 1.8.0_172, National Institute of Health, Bethesda, Maryland, USA) (Schneider, C. A. et al., NIH Image to imaged: 25 years of image analysis; Nat Methods 2012, 9 (7), 671-5). […] The SB disease/SB control ratio was calculated by dividing by the SB in diseased tissues with the respective SB in control tissues.

[4] = biological target: T3, Aβ1-42 fibrils (Homo sapiens, UniProt P05067); experiment: [3H]PiB competition binding assay on Aβ fibrils; settings: for binding to Aβ fibrils (competition with [3H]PiB): [3H]PiB competition on Aβ fibrils
T3 construct: Synthetic lyophilized human Aβ1-42 peptide; purchased EMC Microcollections, Tuebingen, Germany; host or cells: chemical synthesis
T3 sequence (P05067 672-713 limits assumed): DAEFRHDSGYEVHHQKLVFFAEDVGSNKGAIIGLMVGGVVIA
Source text: The method for Aβ1-42 fibrils generation was adapted from Bagchi, D. P. et al., Binding of the radioligand SIL23 to alpha-synuclein fibrils in Parkinson disease brain tissue establishes feasibility and screening approaches for developing a Parkinson disease imaging agent; PLoS One 2013, 8 (2), e55031, and described in Kuebler, L. et al., [11C]MODAG-001-towards a PET tracer targeting α-synuclein aggregates; European Journal of Nuclear Medicine and Molecular Imaging 2020, 48, 1759-1772. Synthetic lyophilized human Aβ1-42 peptide (5 mg) with >90 % purity (EMC Microcollections, Tuebingen, Germany) was dissolved in DMSO (221.5 µL), followed by the addition of deionized water (4.1 mL) and 1 M Tris-HCl (111 µL, pH 7.6) to reach a final monomeric concentration of 250 µM. Aggregation was induced by incubation in Eppendorf Thermomixer at 37°C with shaking at 800 rpm for 72 hours. The resulted fibrils were sonicated for 3 min in a water bath (Elmasonic S 60 H, Elma Schmidbauer GmbH, Singen, Germany). The final products were aliquoted, frozen on dry ice, and stored at -80°C until use.
as §1, §2

[5] = [3H]PiB competition, αSYN fibrils, mean Ki ± SEM, two data points (9a, 14a, 15a, 17a, 18a, 43, 44, MFSB three; 12a single), read-out: Ki

| Compound | Ki ([2]; read-out: Ki) [µM] | also measured |
| --- | --- | --- |
| Fc1ccc2nc(C=Cc3ccc(N4CCCCC4)cc3)sc2c1 (mixture of isomers) [9a, 6-fluoro-2-(4-(piperidin-1-yl)styryl)benzo[d]thiazole] |  | Ki [1]: 0.142 ± 0.0169 µM; Ki [2, 5]: 0.0254 ± 0.0023 µM |
| Cc1cccc2sc(C=Cc3ccc(N4CCCCC4)cc3)nc12 [1a, 4-methyl-2-(4-(piperidin-1-yl)styryl)benzo[d]thiazole] | 0.135 ± 0.0635 |  |
| Cc1cccc2sc(/C=C/c3ccc(N4CCCCC4)cc3)[n+](C)c12 [1b, 3,4-dimethyl-2-(4-(piperidin-1-yl)styryl)benzo[d]thiazol-3-ium 4-nitrobenzenesulfonate] |  | Ki [2]: 0.06 ± 0.0239 µM |
| COc1cccc2sc(C=Cc3ccc(N4CCCCC4)cc3)[n+](C)c12 [2b, 4-methoxy-3-methyl-2-(4-(piperidin-1-yl)styryl)benzo[d]thiazol-3-ium iodide] | 0.0526 ± 0.0183 |  |
| Fc1cccc2sc(C=Cc3ccc(N4CCCCC4)cc3)nc12 [3a, 4-fluoro-2-(4-(piperidin-1-yl)styryl)benzo[d]thiazole] | 0.149 ± 0.038 |  |
| Cc1ccc2sc(C=Cc3ccc(N4CCCCC4)cc3)nc2c1 [4a, 5-methyl-2-(4-(piperidin-1-yl)styryl)benzo[d]thiazole] | 0.161 ± 0.0727 |  |
| Cc1ccc2sc(C=Cc3ccc(N4CCCCC4)cc3)[n+](C)c2c1 [4b, 3,5-dimethyl-2-(4-(piperidin-1-yl)styryl)benzo[d]thiazol-3-ium iodide] | 0.0722 ± 0.0124 |  |
| COc1ccc2sc(C=Cc3ccc(N4CCCCC4)cc3)nc2c1 [5a, 5-methoxy-2-(4-(piperidin-1-yl)styryl)benzo[d]thiazole] | 0.158 ± 0.0297 |  |
| COc1ccc2sc(C=Cc3ccc(N4CCCCC4)cc3)[n+](C)c2c1 [5b, 5-methoxy-3-methyl-2-(4-(piperidin-1-yl)styryl)benzo[d]thiazol-3-ium iodide] | 0.0952 ± 0.0677 |  |
| Fc1ccc2sc(C=Cc3ccc(N4CCCCC4)cc3)nc2c1 [6a, 5-fluoro-2-(4-(piperidin-1-yl)styryl)benzo[d]thiazole] | 0.147 ± 0.0223 |  |
| C[n+]1c(C=Cc2ccc(N3CCCCC3)cc2)sc2ccc(F)cc21 [6b, 5-fluoro-3-methyl-2-(4-(piperidin-1-yl)styryl)benzo[d]thiazol-3-ium iodide] | 0.352 ± 0.0835 |  |
| Cc1ccc2nc(C=Cc3ccc(N4CCCCC4)cc3)sc2c1 [7a, 6-methyl-2-(4-(piperidin-1-yl)styryl)benzo[d]thiazole] | 0.224 ± 0.0061 |  |
| Cc1ccc2c(c1)sc(C=Cc1ccc(N3CCCCC3)cc1)[n+]2C [7b, 3,6-dimethyl-2-(4-(piperidin-1-yl)styryl)benzo[d]thiazol-3-ium iodide] | 0.0203 ± 0.0035 |  |
| COc1ccc2nc(C=Cc3ccc(N4CCCCC4)cc3)sc2c1 [8a, 6-methoxy-2-(4-(piperidin-1-yl)styryl)benzo[d]thiazole] | 0.106 ± 0.0036 |  |
| COc1ccc2c(c1)sc(C=Cc1ccc(N3CCCCC3)cc1)[n+]2C [8b, 6-methoxy-3-methyl-2-(4-(piperidin-1-yl)styryl)benzo[d]thiazol-3-ium iodide] | 0.0147 ± 0.0051 |  |
| C[n+]1c(C=Cc2ccc(N3CCCCC3)cc2)sc2cc(F)ccc21 [9b, 6-fluoro-3-methyl-2-(4-(piperidin-1-yl)styryl)benzo[d]thiazol-3-ium iodide] | 0.189 ± 0.146 |  |

| Compound | Ki ([2]; read-out: Ki) [µM] | also measured |
| --- | --- | --- |
| Cc1cccc2c1sc(C=Cc1ccc(N3CCCCC3)cc1)[n+]2C [10b, 3,7-dimethyl-2-(4-(piperidin-1-yl)styryl)benzo[d]thiazol-3-ium iodide] | 0.148 ± 0.0837 |  |
| COc1cccc2c1sc(C=Cc1ccc(N3CCCCC3)cc1)[n+]2C [11b, 7-methoxy-3-methyl-2-(4-(piperidin-1-yl)styryl)benzo[d]thiazol-3-ium iodide] | 0.206 ± 0.0282 |  |
| Fc1cccc2nc(C=Cc3ccc(N4CCCCC4)cc3)sc12 [12a, 7-fluoro-2-(4-(piperidin-1-yl)styryl)benzo[d]thiazole] |  | Ki [2, 5]: 0.283 µM |
| c1ccc2sc(-c3ccc(N4CCCCC4)cc3)nc2c1 [13a, 2-(4-(piperidin-1-yl)phenyl)benzo[d]thiazole] | 0.0733 ± 0.0612 |  |
| C(C=Cc1nc2ccccc2s1)=Cc1ccc(N2CCCCC2)cc1 [14a, 2-(4-(4-(piperidin-1-yl)phenyl)buta-1,3-dien-1-yl)benzo[d]thiazole] |  | Ki [2, 5]: 0.0819 ± 0.0156 µM |
| C[n+]1c(C=CC=Cc2ccc(N3CCCCC3)cc2)sc2ccccc21 [14b, 3-methyl-2-(4-(4-(piperidin-1-yl)phenyl)buta-1,3-dien-1-yl)benzo[d]thiazol-3-ium iodide] | 0.0199 ± 0.0031 |  |
| C(=Cc1nc2ccccc2s1)c1ccc(N2CCOCC2)cc1 [15a, 4-(4-(2-(benzo[d]thiazol-2-yl)vinyl)phenyl)morpholine] |  | Ki [2, 5]: 0.092 ± 0.0303 µM |
| C(=Cc1nc2ccccc2s1)c1ccc(N2CCSCC2)cc1 [16a, 2-(4-thiomorpholinostyryl)benzo[d]thiazole] | 0.139 ± 0.0802 |  |
| C(=Cc1nc2ccccc2s1)c1ccc(N2CCCC2)cc1 [17a, 2-(4-(pyrrolidin-1-yl)styryl)benzo[d]thiazole] |  | Ki [2, 5]: 0.0734 ± 0.019 µM |
| C[n+]1c(C=Cc2ccc(N3CCCC3)cc2)sc2ccccc21 [17b, 3-methyl-2-(4-(pyrrolidin-1-yl)styryl)benzo[d]thiazol-3-ium iodide] | 0.102 ± 0.043 |  |
| FC1CCN(c2ccc(C=Cc3nc4ccccc4s3)cc2)CC1 [18a, 2-(4-(4-fluoropiperidin-1-yl)styryl)benzo[d]thiazole] |  | Ki [2, 5]: 0.0998 ± 0.0326 µM |
| [18F]c1ccc2nc(/C=C/c3ccc(N4CCCCC4)cc3)sc2c1 [[^18F]PFSB] |  | specific binding (SB) ratio, MSA patients compared to control of the same brain area [3]: 3.94 ± 0.30 |
| C(=Cc1nc2ccccc2s1)c1ccc(N2CCCCC2)cc1 [compound 20, 2-(4-(piperidin-1-yl)styryl)benzo[d]thiazole] | 0.102 ± 0.0685 |  |
| Fc1ccc2nc(C=CC=Cc3ccc(N4CCCCC4)cc3)sc2c1 [compound 43, 6-fluoro-2-(4-(4-(piperidin-1-yl)phenyl)buta-1,3-dien-1-yl)benzo[d]thiazole] |  | Ki [2, 5]: 0.214 ± 0.121 µM; binding to Aβ fibrils (competition with [3H]PiB) [4]: low |
| Fc1ccc2nc(C=CC=Cc3ccc(N4CCCC4)cc3)sc2c1 [compound 44, 6-fluoro-2-(4-(4-(pyrrolidin-1-yl)phenyl)buta-1,3-dien-1-yl)benzo[d]thiazole] |  | Ki [2, 5]: 0.085 ± 0.041 µM; binding to Aβ fibrils (competition with [3H]PiB) [4]: low |
| Fc1ccc2nc(C=Cc3ccc(N4CCOCC4)cc3)sc2c1 [compound 45, 4-(4-(2-(6-fluorobenzo[d]thiazol-2-yl)vinyl)phenyl)morpholine] |  | fold lower Ki than PFSB ([1]; [3H]MODAG-001 competition, MFSB vs PFSB): 4.6 fold; Ki [1]: 0.0308 ± 0.0105 µM; affinity improved by factor compared to PFSB ([2]; [3H]PiB competition, αSYN fibrils, MFSB vs PFSB): 2.5; Ki [2, 5]: 0.0103 ± 0.0047 µM; selectivity towards αSYN over Aβ ([4]; from [3H]PiB competition on αSYN and Aβ fibrils): remained unchanged |
